Several values for one entry are separate records, joined by “and”; a condition that tells them apart may be missing. Identical values can stand only once. Like-named read-outs stand apart in the source and are kept apart here.
Legend:
CCRF-CEM = assay: NCI cytotoxicity screen; assay type: cell-based, human
SR = assay: NCI cytotoxicity screen; assay type: cell-based, human
A549/ATCC = assay: NCI cytotoxicity screen; assay type: cell-based, human
HOP-62 = assay: NCI cytotoxicity screen; assay type: cell-based, human
NCI-H23 = assay: NCI cytotoxicity screen; assay type: cell-based, human
NCI-H322M = assay: NCI cytotoxicity screen; assay type: cell-based, human
NCI-H522 = assay: NCI cytotoxicity screen; assay type: cell-based, human
COLO 205 = assay: NCI cytotoxicity screen; assay type: cell-based, human
HCT-116 = assay: NCI cytotoxicity screen; assay type: cell-based, human
HCT-15 = assay: NCI cytotoxicity screen; assay type: cell-based, human
KM12 = assay: NCI cytotoxicity screen; assay type: cell-based, human
SF-295 = assay: NCI cytotoxicity screen; assay type: cell-based, human
SF-539 = assay: NCI cytotoxicity screen; assay type: cell-based, human
SNB-19 = assay: NCI cytotoxicity screen; assay type: cell-based, human
SNB-75 = assay: NCI cytotoxicity screen; assay type: cell-based, human
MALME-3M = assay: NCI cytotoxicity screen; assay type: cell-based, human
M14 = assay: NCI cytotoxicity screen; assay type: cell-based, human
MDA-MB-435 = assay: NCI cytotoxicity screen; assay type: cell-based, human
SK-MEL-2 = assay: NCI cytotoxicity screen; assay type: cell-based, human
SK-MEL-5 = assay: NCI cytotoxicity screen; assay type: cell-based, human
UACC-257 = assay: NCI cytotoxicity screen; assay type: cell-based, human
UACC-62 = assay: NCI cytotoxicity screen; assay type: cell-based, human
OVCAR-3 = assay: NCI cytotoxicity screen; assay type: cell-based, human
OVCAR-4 = assay: NCI cytotoxicity screen; assay type: cell-based, human
OVCAR-8 = assay: NCI cytotoxicity screen; assay type: cell-based, human
NCI/ADR-RES = assay: NCI cytotoxicity screen; assay type: cell-based, human
786-0 = assay: NCI cytotoxicity screen; assay type: cell-based, human
ACHN = assay: NCI cytotoxicity screen; assay type: cell-based, human
CAKI-1 = assay: NCI cytotoxicity screen; assay type: cell-based, human
RXF 393 = assay: NCI cytotoxicity screen; assay type: cell-based, human
SN12C = assay: NCI cytotoxicity screen; assay type: cell-based, human
TK-10 = assay: NCI cytotoxicity screen; assay type: cell-based, human
UO-31 = assay: NCI cytotoxicity screen; assay type: cell-based, human
PC-3 = assay: NCI cytotoxicity screen; assay type: cell-based, human
DU-145 = assay: NCI cytotoxicity screen; assay type: cell-based, human
MDA-MB-231/ATCC = assay: NCI cytotoxicity screen; assay type: cell-based, human
HS 578T = assay: NCI cytotoxicity screen; assay type: cell-based, human
BT-549 = assay: NCI cytotoxicity screen; assay type: cell-based, human
T-47D = assay: NCI cytotoxicity screen; assay type: cell-based, human
MDA-MB-468 = assay: NCI cytotoxicity screen; assay type: cell-based, human
[1] = tested on: NSC lung cancer subpanel tumor cell lines; assay: NCI cytotoxicity screen, subpanel; assay type: cell-based, human
[2] = tested on: Melanoma subpanel tumor cell lines; assay: NCI cytotoxicity screen, subpanel; assay type: cell-based, human
[3] = tested on: Ovarian cancer subpanel tumor cell lines; assay: NCI cytotoxicity screen, subpanel; assay type: cell-based, human
59 cancer cell lines = assay: NCI cytotoxicity screen, full panel; assay type: cell-based, human
K-562 = assay: cells; details: Homo sapiens, K562
[4] = subpanel value, NSC lung cancer

## CCN(CC)c1ccc(C=NNC(=O)CSc2nc3ccccc3c(=O)n2Cc2ccc(S(N)(=O)=O)cc2)c(O)c1 [Compound 5, 4-((2-((2-(2-(4-(Diethylamino)-2-hydroxybenzylidene)hydrazineyl)-2-oxoethyl)thio)-4-oxoquinazolin-3(4H)-yl)methyl)benzenesulfonamide]
CCRF-CEM; 10.0 μM one dose
  GI %: 90%
CCRF-CEM; Homo sapiens
  GI50: 196 nM
SR; 10.0 μM one dose
  GI %: 90%
SR; Homo sapiens
  GI50: 212 nM
A549/ATCC; 10.0 μM one dose, A549/ATCC
  GI %: 71%
A549/ATCC; Homo sapiens, A549
  GI50: 1570 nM
HOP-62; 10.0 μM one dose
  GI %: 79%
HOP-62; Homo sapiens
  GI50: 961 nM
NCI-H23; 10.0 μM one dose
  GI %: 61%
NCI-H23; Homo sapiens
  GI50: 1960 nM
NCI-H322M; 10.0 μM one dose
  GI %: 67%
NCI-H322M; Homo sapiens
  GI50: 575 nM
NCI-H522; 10.0 μM one dose
  GI %: 126%
NCI-H522; Homo sapiens
  GI50: 2400 nM
COLO 205; 10.0 μM one dose, COLO-205
  GI %: 102%
COLO 205; Homo sapiens, COLO 205
  GI50: 1510 nM
HCT-116; 10.0 μM one dose
  GI %: 79%
HCT-116; Homo sapiens
  GI50: 363 nM
HCT-15; 10.0 μM one dose
  GI %: 53%
HCT-15; Homo sapiens
  GI50: 3620 nM
KM12; 10.0 μM one dose, KM-12
  GI %: 85%
KM12; Homo sapiens, KM12
  GI50: 569 nM
SF-295; 10.0 μM one dose
  GI %: 80%
SF-295; Homo sapiens
  GI50: 1470 nM
SF-539; 10.0 μM one dose
  GI %: 72%
SF-539; Homo sapiens
  GI50: 1260 nM
SNB-19; 10.0 μM one dose
  GI %: 59%
SNB-19; Homo sapiens
  GI50: 2100 nM
SNB-75; 10.0 μM one dose
  GI %: 62%
SNB-75; Homo sapiens
  GI50: 2860 nM
MALME-3M; 10.0 μM one dose, MALME-3M
  GI %: 69%
MALME-3M; Homo sapiens, Malme-3M
  GI50: 1090 nM
M14; 10.0 μM one dose
  GI %: 96%
M14; Homo sapiens
  GI50: 452 nM
MDA-MB-435; 10.0 μM one dose
  GI %: 87%
MDA-MB-435; Homo sapiens
  GI50: 2070 nM
SK-MEL-2; 10.0 μM one dose
  GI %: 90%
SK-MEL-2; Homo sapiens
  GI50: 2410 nM
SK-MEL-5; 10.0 μM one dose
  GI %: 95%
SK-MEL-5; Homo sapiens
  GI50: 1570 nM
UACC-257; 10.0 μM one dose
  GI %: 87%
UACC-257; Homo sapiens
  GI50: 3030 nM
UACC-62; 10.0 μM one dose
  GI %: 94%
UACC-62; Homo sapiens
  GI50: 886 nM
OVCAR-3; 10.0 μM one dose, IGROV-3
  GI %: 85%
OVCAR-3; Homo sapiens, OVCAR-3
  GI50: 287 nM
OVCAR-4; 10.0 μM one dose, IGROV-4
  GI %: 88%
OVCAR-4; Homo sapiens, OVCAR-4
  GI50: 311 nM
OVCAR-8; 10.0 μM one dose
  GI %: 80%
OVCAR-8; Homo sapiens
  GI50: 932 nM
NCI/ADR-RES; 10.0 μM one dose
  GI %: 13%
NCI/ADR-RES; Homo sapiens, five-dose
  GI50: > 100000 nM
786-0; 10.0 μM one dose
  GI %: 68%
786-0; Homo sapiens
  GI50: 1840 nM
ACHN; 10.0 μM one dose
  GI %: 67%
ACHN; Homo sapiens
  GI50: 1580 nM
CAKI-1; 10.0 μM one dose
  GI %: 69%
CAKI-1; Homo sapiens
  GI50: 1020 nM
RXF 393; 10.0 μM one dose
  GI %: 58%
RXF 393; Homo sapiens
  GI50: 2500 nM
SN12C; 10.0 μM one dose, SN-12C
  GI %: 68%
SN12C; Homo sapiens, SN12C
  GI50: 1930 nM
TK-10; 10.0 μM one dose
  GI %: 85%
TK-10; Homo sapiens
  GI50: 1660 nM
UO-31; 10.0 μM one dose
  GI %: 54%
UO-31; Homo sapiens
  GI50: 2890 nM
PC-3; 10.0 μM one dose
  GI %: 51%
PC-3; Homo sapiens
  GI50: 829 nM
DU-145; 10.0 μM one dose
  GI %: 62%
DU-145; Homo sapiens
  GI50: 944 nM
MDA-MB-231/ATCC; 10.0 μM one dose, MDA-MB-231/ATCC
  GI %: 75%
MDA-MB-231/ATCC; Homo sapiens, MDA-MB-231
  GI50: 643 nM
HS 578T; 10.0 μM one dose, HS-578T
  GI %: 37%
HS 578T; Homo sapiens, Hs-578T
  GI50: 2110 nM
BT-549; 10.0 μM one dose
  GI %: 67%
BT-549; Homo sapiens
  GI50: 2680 nM
T-47D; 10.0 μM one dose, T-47D
  GI %: 94%
T-47D; Homo sapiens, T47D
  GI50: 925 nM
MDA-MB-468; 10.0 μM one dose
  GI %: 110%
MDA-MB-468; Homo sapiens
  GI50: 524 nM
[1]; Homo sapiens, read-out: LC50
  CC50: > 100000 nM
[1]; Homo sapiens, subpanel value, NSC lung cancer
  GI50: 1100 nM
[1]; [4]
  GI50: 1060 nM
  TGI: c (Compounds showed values > 100 μM)
[2]; Homo sapiens, read-out: LC50
  CC50: > 100000 nM
[2]; Homo sapiens, subpanel value, Melanoma
  GI50: 1500 nM
[2]; subpanel value, Melanoma
  GI50: 1500 nM
  TGI: 59090 nM
[3]; Homo sapiens, read-out: LC50
  CC50: > 100000 nM
[3]; Homo sapiens, subpanel value, Ovarian cancer
  GI50: 15100 nM
[3]; subpanel value, Ovarian cancer
  GI50: 15100 nM
  TGI: c (Compounds showed values > 100 μM)
59 cancer cell lines; 10.0 μM one dose, 59 cell lines
  MG% (mean growth percent): 23.5% and 23.46%
59 cancer cell lines; Homo sapiens, read-out: GI50 MG_MID, full panel mean-graph midpoint
  GI50: 1000 nM
59 cancer cell lines; Homo sapiens, read-out: LC50 MG_MID, full panel mean-graph midpoint
  CC50: > 100000 nM
59 cancer cell lines; full panel mean-graph midpoint
  TGI MG_MID: 89200 nM and 89240 nM
59 cancer cell lines; read-out: GI50 MG_MID, full panel mean-graph midpoint
  GI50: 1100 nM
59 cancer cell lines; read-out: LC50 MG_MID, full panel mean-graph midpoint
  CC50: > 100000 nM
K-562
  GI50: 592 nM
